Results on 69 compounds are retold here after US7250521B2, “Method for production of Δ1-pyrrolines” (Bayer CropScience Aktiengesellschaft, priority 2001, dated 2007).

Broadly, the chromatographic logP is a lipophilicity value derived from retention on a column. A lower chromatographic logP goes with a more hydrophilic compound.

This series is described as follows: logP determination by HPLC on reverse-phase column (C 18), EEC directive 79/831 Annex V.A8. In kind it is physicochemical. The procedure: In the acidic range, the determination is carried out at pH 2.3 using the mobile phases 0.1% aqueous phosphoric acid and acetonitrile; linear gradient from 10% acetonitrile to 90% acetonitrile.
In the neutral range, the determination is carried out at pH 7.5 using the mobile phases 0.01 molar aqueous phosphate buffer solution and acetonitrile; linear gradient from 10% acetonitrile to 90% acetonitrile.

The mark [1] stands for this setting: reverse-phase HPLC column (C 18), pH 2.3, acidic range, pH 2.3; 0.1% aqueous phosphoric acid/acetonitrile gradient; 43° C.; values marked a).
[2] abbreviates: reverse-phase HPLC column (C 18), pH 7.5, neutral range, pH 7.5; 0.01 molar aqueous phosphate buffer/acetonitrile gradient; 43° C.; values marked b).

As to `Clc1ccccc1C1=NC(c2ccccc2)CC1` (stereo not drawn) [Example 91], the chromatographic logP by setting is: under setting [1], 1.64; under setting [2], 3.61.

Consider `Brc1ccc(C2=NC(c3ccccc3)CC2)cc1` (stereo not drawn) [Example 72], for which the chromatographic logP by setting is: under setting [1], 1.59; under setting [2], 4.06.

Consider `CC(C)(C)Sc1ccc(C2CCC(=O)N2)cc1` (stereo not drawn) [Example V-26], for which the chromatographic logP under setting [1] was 2.69.

`CC(C)Oc1ccc(C2CCC(c3c(F)cccc3F)=N2)cc1` (stereo not drawn) [Example 110] registered a chromatographic logP under setting [1] of 2.14.

For `Fc1ccc(C2CCC(c3ccc(Br)cc3)=N2)cc1` (stereo not drawn) [Example 100], the chromatographic logP runs as follows: under setting [1], 1.73; under setting [2], 4.14.

Consider `Cc1ccc(C2CCC(=O)N2C(=O)OC(C)(C)C)c(Cl)c1` (stereo not drawn) [III-9], for which the chromatographic logP under setting [1] was determined as 3.83.

Regarding `CC(C)Oc1ccc(-c2ccc(C3CCC(=O)N3C(=O)OC(C)(C)C)cc2)cc1` (stereo not drawn) [III-23], under setting [1], the chromatographic logP stood at 4.17.

Take `CSc1ccc(C2CCC(c3ccccc3Cl)=N2)cc1` (stereo not drawn) [Example 55]: the chromatographic logP worked out at 2.19 under setting [1] and 4 under setting [2].

For the compound `Fc1ccc(C2CCC(c3ccccc3Cl)=N2)cc1F` (stereo not drawn) [Example 49], the chromatographic logP is, setting by setting: under setting [1], 2.67; under setting [2], 3.86.

As for `CC(C)Sc1ccc(C2CCC(c3c(F)cccc3F)=N2)cc1` (stereo not drawn) [Example 36], the chromatographic logP under setting [1] is 2.18.

In the case of `CC(C)(C)OC(=O)N1C(=O)CCC1c1ccc(C2CCCCC2)cc1` (stereo not drawn) [III-18], the chromatographic logP under setting [1] was determined as 4.71.

On to `Brc1ccccc1C1=NC(c2ccc(C3CCCCC3)cc2)CC1` (stereo not drawn) [Example 77], for which the chromatographic logP reads like this: under setting [1], 4.23; under setting [2], 6.03.

Consider `FC(F)(F)Oc1ccc(-c2ccc(C3CCC(c4ccccc4OC(F)(F)F)=N3)cc2)cc1` (stereo not drawn) [Example 7], for which the chromatographic logP under setting [1] was found to be 4.83.

As to `Cc1ccc(C2CCC(c3ccccc3Br)=N2)c(C)c1` (stereo not drawn) [Example 80], the chromatographic logP under setting [1] amounted to 2.55 and the chromatographic logP under setting [2] came out at 4.46.

In the case of `Fc1ccc(C2CCC(c3ccc(C(F)(F)F)cc3)=N2)cc1` (stereo not drawn) [Example 64], the chromatographic logP by setting is: under setting [1], 2.73; under setting [2], 4.2.

In the case of `CC(C)(C)OC(=O)N1C(=O)CCC1c1ccc(F)cc1` (stereo not drawn) [III-21], the chromatographic logP under setting [1] amounted to 2.57.

Regarding `Cc1cc(Cl)ccc1C1CCC(=O)N1` (stereo not drawn) [Example V-6], the chromatographic logP under setting [1] is 1.86.

For the compound `CSc1ccc(C2CCC(c3ccccc3F)=N2)cc1` (stereo not drawn) [Example 85], the chromatographic logP by setting is: under setting [1], 1.62; under setting [2], 3.88.

As for `Clc1ccc(C2CCC(c3ccccc3Cl)=N2)c(Cl)c1` (stereo not drawn) [Example 46], the chromatographic logP is 4.66 under setting [1] and 5.2 under setting [2].

As to `Fc1ccc(C2CCC(c3cc(Cl)ccc3Cl)=N2)cc1` (stereo not drawn) [Example 51], the chromatographic logP runs as follows: under setting [1], 3.79; under setting [2], 4.36.

Turning to `Fc1cccc(F)c1C1=NC(c2ccc(OC(F)(F)F)cc2)CC1` (stereo not drawn) [Example 73], under setting [2], the chromatographic logP was 4.13.

Take `Clc1ccccc1C1=NC(c2ccc(CCc3ccccc3)cc2)CC1` (stereo not drawn) [Example 70]: the chromatographic logP runs as follows: under setting [1], 3.47; under setting [2], 5.33.

For `Cc1ccccc1C1=NC(c2ccc(C(C)C)cc2)CC1` (stereo not drawn) [Example 25], the chromatographic logP by setting is: under setting [1], 2.11; under setting [2], 5.01.

The compound `O=C1CCC(c2ccc(Br)cc2)N1` (stereo not drawn) [Example V-16] returned a chromatographic logP under setting [1] of 1.72.

`Brc1ccccc1C1=NC(c2ccc(CCc3ccccc3)cc2)CC1` (stereo not drawn) [Example 88] showed a chromatographic logP under setting [1] of 3.77 and a chromatographic logP under setting [2] of 5.35.

For the compound `Fc1ccc(C2CCC(c3ccc(OC(F)(F)F)cc3)=N2)cc1` (stereo not drawn) [Example 65], the chromatographic logP came out at 2.23 under setting [1] and 4.31 under setting [2].

Turning to `Fc1cc(F)c(C2=NC(c3ccc(-c4ccc(OC(F)(F)F)cc4)cc3)CC2)c(F)c1` (stereo not drawn) [Example 117], under setting [1], the chromatographic logP stood at 4.57.

For `Clc1cccc(C2=NC(c3ccccc3)CC2)c1` (stereo not drawn) [Example 48], the chromatographic logP is, setting by setting: under setting [1], 1.73; under setting [2], 3.97.

Compound `Clc1cccc(C2=NC(c3ccccc3)CC2)c1Cl` (stereo not drawn) [Example 69] displayed a chromatographic logP under setting [2] of 4.07.

`CCOC(=O)Oc1ccc(-c2ccc(C3CCC(c4ccccc4Cl)=N3)cc2)cc1` (stereo not drawn) [Example 96] came in with a chromatographic logP under setting [1] of 3.14.

Turning to `O=C1CCC(c2ccc(O)cc2)N1` (stereo not drawn) [Example V-19], under setting [1], the chromatographic logP came out at 0.55.

The compound `Cc1cc(Cl)ccc1C1CCC(c2cc(Cl)ccc2Cl)=N1` (stereo not drawn) [Example 61] registered a chromatographic logP under setting [1] of 5.03 and a chromatographic logP under setting [2] of 5.33.

Consider `COc1ccc(C2CCC(c3ccccc3Br)=N2)cc1` (stereo not drawn) [Example 42], for which the chromatographic logP is, setting by setting: under setting [1], 1.79; under setting [2], 3.5.

The compound `COc1ccc(C2CCC(c3ccccc3Br)=N2)cc1F` (stereo not drawn) [Example 43] showed a chromatographic logP under setting [1] of 2.22.

In turn, `Cc1ccc(C2CCC(=O)N2)c(Cl)c1` (stereo not drawn) [Example V-7] displayed a chromatographic logP under setting [1] of 1.92.

For the compound `Cc1cc(Cl)ccc1C1CCC(c2ccccc2Br)=N1` (stereo not drawn) [Example 29], the chromatographic logP runs as follows: under setting [1], 3.55; under setting [2], 4.63.

For `Fc1ccc(C2CCC(c3ccccc3Cl)=N2)c(F)c1` (stereo not drawn) [Example 60], the chromatographic logP runs as follows: under setting [1], 2.9; under setting [2], 3.96.

The compound `Fc1cccc(F)c1C1=NC(c2ccc(OCC(F)(F)F)cc2)CC1` (stereo not drawn) [Example 9] had a chromatographic logP under setting [1] of 2.41.

Under setting [1], `COc1ccc(C2CCC(=O)N2C(=O)OC(C)(C)C)cc1` (stereo not drawn) [III-8] gave a chromatographic logP of 2.43.

`Cc1ccc(C2CCC(c3ccccc3F)=N2)c(Cl)c1` (stereo not drawn) [Example 50]: the chromatographic logP runs as follows: under setting [1], 2.39; under setting [2], 4.74.

With `O=C1CCC(c2ccc(-c3ccc(OCc4ccc(OC(F)(F)F)cc4)cc3)cc2)N1` (stereo not drawn) [Example V-23], the chromatographic logP under setting [1] came to 3.83.

Regarding `FC(F)(F)Oc1ccc(C2CCC(c3ccccc3Br)=N2)cc1` (stereo not drawn) [Example 53], the logP (acidic range, pH 2.3; 0.1% aqueous phosphoric acid/acetonitrile gradient; 43° C.; values marked a)) is recorded as 3.63^a).

Compound `CC(C)(C)OC(=O)N1C(=O)C(C(=O)c2ccc(Cl)cc2)CC1c1ccc(F)cc1` (stereo not drawn) [II-2] displayed a chromatographic logP under setting [1] of 4.13.

Under setting [1], `COc1ccc(C2=NC(c3ccc(-c4ccc(OC(F)(F)F)cc4)cc3)CC2)cc1` (stereo not drawn) [Example 116] came in with a chromatographic logP of 2.94.

For the compound `Fc1ccccc1C1=NC(c2ccc(-c3ccc(OC(F)(F)F)cc3)cc2)CC1` (stereo not drawn) [Example 4], the chromatographic logP worked out at 3.09 under setting [1] and 5.45 under setting [2].

Under setting [1], `O=C1CCC(c2ccc(-c3ccc(Br)cc3)cc2)N1` (stereo not drawn) [Example V-28] showed a chromatographic logP of 2.76.

In turn, `Fc1ccc(F)c(C2=NC(c3ccc(-c4ccc(OC(F)(F)F)cc4)cc3)CC2)c1F` (stereo not drawn) [Example 118] yielded a chromatographic logP under setting [1] of 5.05.

Turning to `CCOc1cc(C(C)(C)C)ccc1C1CCC(c2ccccc2Cl)=N1` (stereo not drawn) [Example 52], the chromatographic logP was 3.01 under setting [1] and 5.78 under setting [2].

On to `CC(C)(C)OC(=O)N1C(=O)CCC1c1ccc(-c2ccc(OCc3ccc(Cl)cc3)cc2)cc1` (stereo not drawn) [III-24], for which, under setting [1], the chromatographic logP came to 4.93.

As for `O=C1CCC(c2ccc(F)c(F)c2)N1` (stereo not drawn) [Example V-13], the chromatographic logP under setting [1] came to 1.43.

As to `Brc1ccc(C2CCC(c3ccccc3Br)=N2)cc1` (stereo not drawn) [Example 98], under setting [1], the chromatographic logP was found to be 3.11.

For `Cc1ccccc1C1=NC(c2ccc(-c3ccc(SC(F)(F)F)cc3)cc2)CC1` (stereo not drawn) [Example 18], the chromatographic logP was determined as 3.25 under setting [1] and 6.1 under setting [2].

As to `Oc1ccc(C2CCC(c3ccccc3F)=N2)cc1` (stereo not drawn) [Example 104], the chromatographic logP under setting [1] worked out at 0.59.

As to `FC(F)(F)Oc1ccc(C2CCC(c3ccccc3Cl)=N2)cc1` (stereo not drawn) [Example 41], the chromatographic logP under setting [2] came out at 4.5.

As for `Cc1cccc(C)c1C1=NC(c2ccc(-c3ccc(OC(F)(F)F)cc3)cc2)CC1` (stereo not drawn) [Example 6], the chromatographic logP under setting [1] came out at 5.7.

On to `Cc1ccc(C2CCC(c3ccccc3Cl)=N2)c(Cl)c1` (stereo not drawn) [Example 38], for which the chromatographic logP turned out to be 3.52 under setting [1] and 4.86 under setting [2].

Consider `Cc1ccc(C2CCC(c3ccccc3Br)=N2)c(Cl)c1` (stereo not drawn) [Example 47], for which the chromatographic logP reads like this: under setting [1], 3.98; under setting [2], 4.88.

`Fc1ccc(C2CCC(c3ccccc3Cl)=N2)cc1` (stereo not drawn) [Example 95] showed a chromatographic logP under setting [1] of 2 and a chromatographic logP under setting [2] of 3.68.

`Cc1ccc(C2CCC(=O)N2C(=O)OC(C)(C)C)cc1Cl` (stereo not drawn) [III-14] yielded a chromatographic logP under setting [1] of 3.3.

In the case of `CC(C)c1ccc(C2CCC(c3ccccc3Br)=N2)cc1` (stereo not drawn) [Example 23], under setting [1], the chromatographic logP is 3.06.

Turning to `Fc1ccccc1C1=NC(c2ccccc2)CC1` (stereo not drawn) [Example 76], the chromatographic logP runs as follows: under setting [1], 1.16; under setting [2], 3.45.

On to `FC(F)(F)Sc1ccc(-c2ccc(C3CCC(c4ccccc4Cl)=N3)cc2)cc1` (stereo not drawn) [Example 16], for which the chromatographic logP was 4.67 under setting [1] and 5.94 under setting [2].

Turning to `Fc1cc(F)c(C2=NC(c3ccc(-c4ccc(SC(F)(F)F)cc4)cc3)CC2)c(F)c1` (stereo not drawn) [Example 114], the chromatographic logP under setting [1] stood at 5.05.

On to `O=C1CCC(c2ccc(Cl)cc2Cl)N1` (stereo not drawn) [Example V-8], for which the chromatographic logP under setting [1] turned out to be 2.02.

With `CC(C)Oc1cc(-c2ccccc2)ccc1C1CCC(c2ccccc2Cl)=N1` (stereo not drawn) [Example 103], under setting [1], the chromatographic logP came to 3.26.

For the compound `FC(F)(F)Sc1ccc(-c2ccc(C3CCC(c4ccc(Cl)cc4Cl)=N3)cc2)cc1` (stereo not drawn) [Example 19], the chromatographic logP under setting [1] was 6.19.

In the case of `FC(F)(F)Oc1ccc(-c2ccc(C3CCC(c4ccccc4C(F)(F)F)=N3)cc2)cc1` (stereo not drawn) [Example 3], the chromatographic logP under setting [1] stood at 5.11.

For `CC(C)(C)OC(=O)N1C(=O)C(C(=O)c2ccccc2C(F)(F)F)CC1c1ccc(Br)cc1` (stereo not drawn) [II-3], the chromatographic logP under setting [2] is 3.03.

`Cc1cc(Cl)ccc1C1CCC(=O)N1C(=O)OC(C)(C)C` (stereo not drawn) [III-6]: the chromatographic logP was 3.24 under setting [1] and 3.25 under setting [2].
